A word on the AUC: it is the area under the concentration-time curve, a measure of exposure. For orientation: Ki means a dissociation constant, usually derived from enzyme kinetics or from competition with a known ligand. Read a low Ki as higher affinity. In general, Cmax refers to the maximum level reached in the sampled fluid or tissue.

The record followed here is ChEMBL document CHEMBL1136651, “Structure-based de novo design of non-nucleoside adenosine deaminase inhibitors” (Bioorg Med Chem Lett, 2003).

The structures appear in SMILES notation. Bounds are passed on as bounds.

A short description of series [1]: Pharmacokinetic property (AUC) was determined after po administration of 32 mg/kg in mice. It is filed as ADME, organism-based. The arrangement: dose 32 mg/kg, route oral. As to conditions: mouse, in vivo.
Series [2] addresses T1, Adenosine deaminase (Homo sapiens, UniProt P00813).
T1 sequence (P00813 whole entry): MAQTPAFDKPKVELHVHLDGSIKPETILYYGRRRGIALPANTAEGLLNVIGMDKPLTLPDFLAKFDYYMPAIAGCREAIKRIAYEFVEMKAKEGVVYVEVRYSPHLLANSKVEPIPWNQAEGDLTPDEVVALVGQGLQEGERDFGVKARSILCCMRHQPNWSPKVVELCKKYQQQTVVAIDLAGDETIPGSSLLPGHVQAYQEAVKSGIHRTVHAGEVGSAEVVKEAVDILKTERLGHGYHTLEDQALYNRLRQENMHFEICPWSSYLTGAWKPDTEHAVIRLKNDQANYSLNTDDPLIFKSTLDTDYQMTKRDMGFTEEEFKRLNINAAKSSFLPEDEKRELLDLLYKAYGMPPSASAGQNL
Description: Inhibition constant against human adenosine deaminase was determined

Series [3] can be described thus: Pharmacokinetic property (C(max)) was determined after po administration of 32 mg/kg in mice. It is filed as ADME, organism-based. On the set-up: dose 32 mg/kg, route oral. The settings on record: mouse, in vivo.
Series [4] is described as follows: Pharmacokinetic property (C(max)) was determined after ip administration of 32 mg/kg in mice. It is filed as ADME, organism-based. The arrangement: dose 32 mg/kg, route intraperitoneal. The settings on record: mouse, in vivo.
The nature of series [5]: Pharmacokinetic property (AUC) was determined after ip administration of 32 mg/kg in mice. It is filed as ADME, organism-based. On the set-up: dose 32 mg/kg, route intraperitoneal. The settings on record: mouse, in vivo.

For `CCCCCC[C@@H]([C@@H](C)O)n1cnc2c(N)ncnc21` [EHNA], the values for the AUC in series [1] and in series [5] were 1000 ng·h/mL and 2200 ng·h/mL, respectively. This molecule also displayed a Ki in series [2] of 0.0037 µM. Further, the Cmax stood at 1100 ng/mL in series [3] and 5900 ng/mL in series [4].

Molecule `O=C(O)c1cn(C(CO)c2ccccc2)cn1` (stereo not given) gave a Ki in series [2] above 100 µM.

In the case of `NC(=O)c1cn(C(CO)CCc2ccccc2)cn1` (stereo not given) [FR-221647], the AUC was determined as 29900 ng·h/mL in series [1] and 29600 ng·h/mL in series [5]. In addition, the results for the Cmax in series [3] and in series [4] were 15200 ng/mL and 25200 ng/mL, respectively.

`OCc1cn(C(CO)c2ccccc2)cn1` (stereo not given) showed a Ki in series [2] above 100 µM.

In series [2], `COC(=O)c1cn(C(CO)c2ccccc2)cn1` (stereo not given) came in with a Ki above 100 µM.

In the case of `OC[C@H]1O[C@@H](n2cnc3c2NC=NC[C@H]3O)C[C@@H]1O` [PENTOSTATIN], the concentration in series [4] peaked (Cmax) at 12200 ng/mL. The molecule also yielded an exposure (AUC) in series [5] of 9500 ng·h/mL.

Turning to `NC(=O)c1cn(C(CO)c2ccccc2)cn1` (stereo not given), the Ki in series [2] came to 54 µM.
